# Data from patent publication US11433111B2 (priority 2019, dated 2022).
# Tested on: scopolamine induced memory impairment in male Swiss albino mice
# Assay: Passive avoidance test, scopolamine induced memory impairment
# Details: 5 mg/kg p.o.; scopolamine 1 mg/kg i.p.; mean ± SEM of six mice
# From the text: The rectangular larger compartment has 50 cm×50 cm grid floor and wooden walls of 35 cm height. The box was illuminated with a 100-W bulb placed 150 cm above the center. It has a roof, which can be opened or closed. One of the walls has a 6 cm×6 cm opening which to a dark smaller compartment having dimensions of 15 cm×15 cm. This compartment is provided with an electrifiable grid, which is connected to a constant current stimulator, and a ceiling that can be opened or closed. The connection between the two compartments can be closed with a sliding door made of transparent Plexiglas. […] The experiment was divided into three parts: An exploration test, Learning (Electric shock), and Retention testing.
# The exploration test is done in three trials. During this, mice are placed in the center of the larger compartment facing away from the entrance to the dark compartment. The door between the two compartments is kept open. The mice are allowed to explore the apparatus (both larger and smaller compartments) for 3 minutes. In each trial, two things will be examined: Time taken by the mice to enter the dark compartment at each trial; and the total time spent by the animal in the dark compartment, using a stop-watch.
# After the last exploration trial, the mice are placed in the larger compartment as done in the trial sessions. […]
compound,measurement,value
COc1cc2c(cc1OC)C(=O)C(CC1CCN(Cc3ccccc3)CC1)C2 (stereo not shown) [Donepezil],No. of crossings,1.17 ± 0.17
